Converted amounts (≈) assume the structure as drawn.
What was measured:
Escherichia coli [1] = assay: Antibacterial activity against Escherichia coli; type: functional
Pseudomonas aeruginosa [2] = assay: Antibacterial activity against Pseudomonas aeruginosa; type: functional
[3] = test system: Yersinia pseudotuberculosis; assay: Antibacterial activity against Yersinia pseudotuberculosis; type: functional
Staphylococcus aureus [4] = assay: Antibacterial activity against Staphylococcus aureus; type: functional
Enterococcus faecalis = assay: Antibacterial activity against Enterococcus faecalis; type: functional
Bacillus cereus [5] = assay: Antibacterial activity against Bacillus cereus; type: functional
[6] = test system: Mycolicibacterium smegmatis; assay: Antibacterial activity against Mycobacterium smegmatis; type: functional
[7] = test system: Staphylococcus epidermidis; assay: Antibacterial activity against Staphylococcus epidermidis assessed as zone of inhibition at 100 ug/ml; conditions: read-out: IZ
Bacillus cereus [8] = assay: Antibacterial activity against Bacillus cereus assessed as zone of inhibition at 100 ug/ml; type: functional; conditions: read-out: IZ
Escherichia coli [9] = assay: Antibacterial activity against Escherichia coli assessed as zone of inhibition at 100 ug/ml; conditions: read-out: IZ
Pseudomonas aeruginosa [10] = assay: Antibacterial activity against Pseudomonas aeruginosa assessed as zone of inhibition at 100 ug/ml; conditions: read-out: IZ
Staphylococcus aureus [11] = assay: Antibacterial activity against methicillin-resistant Staphylococcus aureus; type: functional
Escherichia coli [12] = assay: Antibacterial activity against multi drug-resistant Escherichia coli; type: functional
Aspergillus niger = assay: Antifungal activity against Aspergillus niger assessed as zone of inhibition at 100 ug/ml; type: functional; conditions: read-out: IZ
Aspergillus fumigatus = assay: Antifungal activity against Aspergillus fumigatus assessed as zone of inhibition at 100 ug/ml; type: functional; conditions: read-out: IZ
Staphylococcus aureus [13] = assay: Antibacterial activity against Staphylococcus aureus after 3 to 7 days by cup diffusion method; type: functional; conditions: Staphylococcus aureus; read-out: MIC
Bacillus subtilis [14] = assay: Antibacterial activity against Bacillus subtilis after 3 to 7 days by cup diffusion method; type: functional; conditions: Bacillus subtilis; read-out: MIC
Escherichia coli [15] = assay: Antibacterial activity against Escherichia coli after 3 to 7 days by cup diffusion method; type: functional; conditions: Escherichia coli; read-out: MIC
Pseudomonas aeruginosa [16] = assay: Antibacterial activity against Pseudomonas aeruginosa after 3 to 7 days by cup diffusion method; type: functional; conditions: Pseudomonas aeruginosa; read-out: MIC
Mycolicibacterium phlei [17] = assay: Antibacterial activity against Mycobacterium phlei clinical isolate after 3 to 7 days by cup diffusion method; type: functional; conditions: Mycolicibacterium phlei; read-out: MIC
[18] = test system: Aggregatibacter actinomycetemcomitans; assay: Antibacterial activity against Aggregatibacter actinomycetemcomitans ATCC 29524 after 3 to 7 days by cup diffusion method; type: functional; conditions: Aggregatibacter actinomycetemcomitans, ATCC 29524; read-out: MIC
Staphylococcus aureus [19] = assay: Antibacterial activity against Staphylococcus aureus assessed as zone of inhibition at 10 mg/ml after 3 to 7 days by cup diffusion method; type: functional; conditions: read-out: IZ
Bacillus subtilis [20] = assay: Antibacterial activity against Bacillus subtilis assessed as zone of inhibition at 10 mg/ml after 3 to 7 days by cup diffusion method; type: functional; conditions: read-out: IZ
Escherichia coli [21] = assay: Antibacterial activity against Escherichia coli assessed as zone of inhibition at 10 mg/ml after 3 to 7 days by cup diffusion method; type: functional; conditions: read-out: IZ
Pseudomonas aeruginosa [22] = assay: Antibacterial activity against Pseudomonas aeruginosa assessed as zone of inhibition at 10 mg/ml after 3 to 7 days by cup diffusion method; type: functional; conditions: read-out: IZ
Mycolicibacterium phlei [23] = assay: Antibacterial activity against Mycobacterium phlei clinical isolate assessed as zone of inhibition at 10 mg/ml after 3 to 7 days by cup diffusion method; type: functional; conditions: read-out: IZ
[24] = test system: Aggregatibacter actinomycetemcomitans; assay: Antibacterial activity against Aggregatibacter actinomycetemcomitans ATCC 29524 assessed as zone of inhibition at 10 mg/ml after 3 to 7 days by cup diffusion method; type: functional; conditions: read-out: IZ
DNA gyrase = DNA gyrase (Escherichia coli, UniProt P0AES4+P0AES6); assay: Inhibition of Escherichia coli DNA gyrase super-coiling activity using pBR322 DNA as substrate after 30 mins by fluorescence assay; type: protein-complex assay

| Structure (SMILES) | MIC (Escherichia coli [1]) [µg/mL] | MIC (Pseudomonas aeruginosa [2]) [µg/mL] | MIC [3] [µg/mL] | MIC (Staphylococcus aureus [4]) [µg/mL] | MIC (Enterococcus faecalis) [µg/mL] | MIC (Bacillus cereus [5]) [µg/mL] | MIC [6] [µg/mL] | other results |
| --- | --- | --- | --- | --- | --- | --- | --- | --- |
| CC1(C)S[C@@H]2[C@H](NC(=O)[C@H](N)c3ccccc3)C(=O)N2[C@H]1C(=O)O [AMPICILLIN] | 10 to 128 (≈ 28.6 to 366 µM) | 10 to 128 (≈ 28.6 to 366 µM) | 10 to 128 (≈ 28.6 to 366 µM) | 10 to 128 (≈ 28.6 to 366 µM) | 10 to 128 (≈ 28.6 to 366 µM) | 10 to 128 (≈ 28.6 to 366 µM) | 10 to 128 (≈ 28.6 to 366 µM) |  |
| CCn1cc(C(=O)O)c(=O)c2cc(F)c(N3CCN(Cn4nc(N5CCN(c6ccc([N+](=O)[O-])cc6)CC5)n(Cc5ccccc5)c4=S)CC3)cc21 | 0.03 to 0.99 (≈ 0.0412 to 1.36 µM) | 0.03 to 0.99 (≈ 0.0412 to 1.36 µM) | 0.03 to 0.99 (≈ 0.0412 to 1.36 µM) | 0.03 to 0.99 (≈ 0.0412 to 1.36 µM) | 0.03 to 0.99 (≈ 0.0412 to 1.36 µM) | 0.03 to 0.99 (≈ 0.0412 to 1.36 µM) | 0.03 to 0.99 (≈ 0.0412 to 1.36 µM) |  |
| O=C(O)c1cn(C2CC2)c2cc(N3CCNCC3)c(F)cc2c1=O [CIPROFLOXACIN] |  |  |  |  |  |  |  | zone of inhibition at 100 µg/mL [7]: 23 to 29 mm; zone of inhibition at 100 µg/mL (Bacillus cereus [8]): 23 to 29 mm; zone of inhibition at 100 µg/mL (Escherichia coli [9]): 23 to 29 mm; zone of inhibition at 100 µg/mL (Pseudomonas aeruginosa [10]): 23 to 29 mm; MIC (Staphylococcus aureus [11]): 0.25 to 8 µg/mL (≈ 0.754 to 24.1 µM); MIC (Escherichia coli [12]): 0.25 to 8 µg/mL (≈ 0.754 to 24.1 µM) |
| CCn1cc(C(=O)O)c(=O)c2cc(F)c(N3CCN(Cn4nc(N5CCN(c6ccc([N+](=O)[O-])cc6)CC5)n(-c5ccc(F)cc5)c4=S)CC3)cc21 | 0.03 to 0.99 (≈ 0.041 to 1.35 µM) | 0.03 to 0.99 (≈ 0.041 to 1.35 µM) | 0.03 to 0.99 (≈ 0.041 to 1.35 µM) | 0.03 to 0.99 (≈ 0.041 to 1.35 µM) | 0.03 to 0.99 (≈ 0.041 to 1.35 µM) | 0.03 to 0.99 (≈ 0.041 to 1.35 µM) | 0.03 to 0.99 (≈ 0.041 to 1.35 µM) |  |
| Nn1c(S)nnc1Cn1c(=O)cc(-c2ccccc2)c2cc(Cl)ccc21 | 8 to 256 (≈ 20.8 to 667 µM) | 8 to 256 (≈ 20.8 to 667 µM) |  | 8 to 256 (≈ 20.8 to 667 µM) |  |  |  |  |
| COc1cccc2c(-c3ccccc3)cc(=O)n(Cc3nnc(S)n3N)c12 | 8 to 256 (≈ 21.1 to 675 µM) | 8 to 256 (≈ 21.1 to 675 µM) |  | 8 to 256 (≈ 21.1 to 675 µM) |  |  |  |  |
| CCn1cc(C(=O)O)c(=O)c2cc(F)c(N3CCN(Cn4nc(N5CCN(c6ccc([N+](=O)[O-])cc6)CC5)n(-c5ccccc5)c4=S)CC3)cc21 | 0.03 to 0.99 (≈ 0.042 to 1.39 µM) | 0.03 to 0.99 (≈ 0.042 to 1.39 µM) | 0.03 to 0.99 (≈ 0.042 to 1.39 µM) | 0.03 to 0.99 (≈ 0.042 to 1.39 µM) | 0.03 to 0.99 (≈ 0.042 to 1.39 µM) | 0.03 to 0.99 (≈ 0.042 to 1.39 µM) | 0.03 to 0.99 (≈ 0.042 to 1.39 µM) |  |
| OC(Cn1cncn1)(Cn1cncn1)c1ccc(F)cc1F [FLUCONAZOLE] |  |  |  |  |  |  |  | zone of inhibition at 100 µg/mL (Aspergillus niger): 29 mm; zone of inhibition at 100 µg/mL (Aspergillus fumigatus): 26 mm |
| CCn1c(N2CCN(c3ccc([N+](=O)[O-])cc3)CC2)nn(CN2CCN(c3cc4c(cc3F)c(=O)c(C(=O)O)cn4CC)CC2)c1=S | 0.03 to 0.99 (≈ 0.0451 to 1.49 µM) | 0.03 to 0.99 (≈ 0.0451 to 1.49 µM) | 0.03 to 0.99 (≈ 0.0451 to 1.49 µM) | 0.03 to 0.99 (≈ 0.0451 to 1.49 µM) | 0.03 to 0.99 (≈ 0.0451 to 1.49 µM) | 0.03 to 0.99 (≈ 0.0451 to 1.49 µM) | 0.03 to 0.99 (≈ 0.0451 to 1.49 µM) |  |
| CCn1cc(-c2nc(NC(=O)c3ccccc3)n[nH]2)c(=O)c2cc(Br)c(C)nc21 |  |  |  |  |  |  |  | MIC (Staphylococcus aureus [13]): 3.68 to 6.3 µM (≈ 1.67 to 2.86 µg/mL); MIC (Bacillus subtilis [14]): 3.68 to 6.3 µM (≈ 1.67 to 2.86 µg/mL); MIC (Escherichia coli [15]): 3.68 to 6.3 µM (≈ 1.67 to 2.86 µg/mL); MIC (Pseudomonas aeruginosa [16]): 3.68 to 6.3 µM (≈ 1.67 to 2.86 µg/mL); MIC (Mycolicibacterium phlei [17]): 3.68 to 6.3 µM (≈ 1.67 to 2.86 µg/mL); MIC [18]: 3.68 to 6.3 µM (≈ 1.67 to 2.86 µg/mL); zone of inhibition at 10000 µg/mL (Staphylococcus aureus [19]): 20 to 40 mm; zone of inhibition at 10000 µg/mL (Bacillus subtilis [20]): 20 to 40 mm; zone of inhibition at 10000 µg/mL (Escherichia coli [21]): 20 to 40 mm; zone of inhibition at 10000 µg/mL (Pseudomonas aeruginosa [22]): 20 to 40 mm; zone of inhibition at 10000 µg/mL (Mycolicibacterium phlei [23]): 20 to 40 mm; zone of inhibition at 10000 µg/mL [24]: 20 to 40 mm; IC50 (DNA gyrase): 4.28 µM |
| Cc1ccc2c(c1)c(-c1ccccc1)cc(=O)n2Cc1nnc(S)n1N | 8 to 256 (≈ 22 to 704 µM) | 8 to 256 (≈ 22 to 704 µM) |  | 8 to 256 (≈ 22 to 704 µM) |  |  |  |  |
| Nn1c(S)nnc1Cn1c(=O)cc(-c2ccccc2)c2cccc(Cl)c21 | 8 to 256 (≈ 20.8 to 667 µM) | 8 to 256 (≈ 20.8 to 667 µM) |  | 8 to 256 (≈ 20.8 to 667 µM) |  |  |  |  |
| Cc1ccc2c(-c3ccccc3)cc(=O)n(Cc3nnc(S)n3N)c2c1 | 8 to 256 (≈ 22 to 704 µM) | 8 to 256 (≈ 22 to 704 µM) |  | 8 to 256 (≈ 22 to 704 µM) |  |  |  |  |
| CCn1cc(C(=O)O)c(=O)c2cc(F)c(N3CCN(Cn4nc(N5CCN(c6ccc([N+](=O)[O-])cc6)CC5)n(Cc5ccccc5)c4=O)CC3)cc21 | 0.03 to 0.99 (≈ 0.0421 to 1.39 µM) | 0.03 to 0.99 (≈ 0.0421 to 1.39 µM) | 0.03 to 0.99 (≈ 0.0421 to 1.39 µM) | 0.03 to 0.99 (≈ 0.0421 to 1.39 µM) | 0.03 to 0.99 (≈ 0.0421 to 1.39 µM) | 0.03 to 0.99 (≈ 0.0421 to 1.39 µM) | 0.03 to 0.99 (≈ 0.0421 to 1.39 µM) |  |
| COc1ccc2c(-c3ccccc3)cc(=O)n(Cc3nnc(S)n3N)c2c1 | 8 to 256 (≈ 21.1 to 675 µM) | 8 to 256 (≈ 21.1 to 675 µM) |  | 8 to 256 (≈ 21.1 to 675 µM) |  |  |  |  |
| CCn1cc(C(=O)O)c(=O)c2cc(F)c(N3CCN(Cn4nc(N5CCN(c6ccc([N+](=O)[O-])cc6)CC5)n(-c5ccccc5)c4=O)CC3)cc21 | 0.03 to 0.99 (≈ 0.043 to 1.42 µM) | 0.03 to 0.99 (≈ 0.043 to 1.42 µM) | 0.03 to 0.99 (≈ 0.043 to 1.42 µM) | 0.03 to 0.99 (≈ 0.043 to 1.42 µM) | 0.03 to 0.99 (≈ 0.043 to 1.42 µM) | 0.03 to 0.99 (≈ 0.043 to 1.42 µM) | 0.03 to 0.99 (≈ 0.043 to 1.42 µM) |  |

Source: ChEMBL document CHEMBL4346717, “1,2,4-Triazole-quinoline/quinolone hybrids as potential anti-bacterial agents” (Eur J Med Chem, 2019)
